US10092578B2, “Active agents and their oligomers and polymers” (Polymerix Corporation, priority 2006, dated 2018)
Values after ≈ are worked out from the molar mass of the structure shown.

Experiments:
[1] = tested on: mixed Coryne/Staph milieu; experiment: Biosys bacterial growth test, mixed Coryne/Staph; assay type: cell-based, Corynebacter/Staph; conditions: for % Red (average reduction in bacterial growth rates): 24 hours
Experimental: (§1) Samples of Examples 1 and 2 and Comparative Example 1 were evaluated in two different bacterial growth assays. The first test was a standard Minimum Inhibitory Concentration (MIC) assessment involving serial dilution of test compound particle suspensions in water. In this test, the samples were evaluated at 24 hours against human derived Staphylococcus epidermidis and Corynebacter sp. form organisms. The second test utilized a Biosys® system to assess the effect of the samples added as a dry powder directly to a nutrient broth containing either human derived Staph epidermidis or a mixed Coryne/Staph milieu. In the case of the Biosys test, the bacteria laced nutrient broth alone was used as the negative control.

[2] = tested on: Corynebacter sp. form organisms; experiment: Minimum Inhibitory Concentration (MIC) assessment, Coryne form; assay type: cell-based; conditions: 24 hours, particle suspensions in water; read-out: MIC versus Coryne form
Experimental: as §1

[3] = Salicylic acid release into artificial sweat; assay type: physicochemical; conditions: 35° C.
Experimental: FIG. 1 illustrates salicylic acid release at 35° C. Samples of Example 1 (square), Example 2 (triangle) and Comparative Example 1 (diamond) were placed in artificial sweat or artificial sweat plus proteins and incubated at 35° C. for 3 to 5 minutes, 1, 2, 4, 6 and 24 hours, rapidly filtered (0.22 μm filter) and analyzed for salicylic acid by HPLC.
Samples of Example 1 and 2 and Comparative Example 1 were placed in artificial sweat or artificial sweat plus proteins and incubated at 35° C. for 3 to 5 minutes, 1, 2, 4, 6 and 24 hours, rapidly filtered (0.22 μm filter) and analyzed for salicylic acid by HPLC.

[4] = Hydrolytic release of salicylic acid in buffer at 32° C., HPLC; assay type: physicochemical; conditions: acetate buffer pH 5.5, 32° C.
Experimental: Examples 1, 3 and 4 (both A & B) and Comparative Examples 1 and 2 were evaluated for rate of release of salicylic acid. Samples were hydrolyzed at 32° C. using acetate buffer (pH 5.5) as relevant condition for typical skin pH. The materials were placed in 50 mL centrifuge tubes for elution using conventional elution protocols, shaking the tubes in a thermostatic environment. Aliquots were taken from the tubes at periodic intervals and immediately placed in a vial and analyzed by HPLC as soon as they were removed from the hydrolysis vessel.
The respective salicylic acid release rates of the Example 4A and Example 4B at pH 5.5 are compared in FIG. 5. The rates of Example 4B at pH of 5.5 and 7.29 are compared in FIG. 6.

[5] = tested on: human derived Staph epidermidis; experiment: Biosys bacterial growth test, Staph epidermidis; assay type: cell-based, Staphylococcus epidermidis; conditions: for % Red (average reduction in bacterial growth rates): 24 hours
Experimental: as §1

[6] = tested on: human derived Staphylococcus epidermidis; experiment: Minimum Inhibitory Concentration (MIC) assessment, Staph epidermidis; assay type: cell-based; conditions: for antibacterial activity (in words): MIC test, summary of Table 3; for MIC: Staphylococcus epidermidis, 24 hours, particle suspensions in water, read-out: MIC versus Staph epidermidis
Experimental: as §1

[7] = Particle size determination by light scattering; assay type: physicochemical; conditions: for Average % of particles below 10 μm / Average % of particles below 100 μm / Average % of particles below 200 μm: average of 3 samples; for Volume Mean Particle Diameter: light scattering
Description: Light scattering techniques were employed to assess the particle size distributions of samples of the compositions of Examples 1 and 2 and Comparative Example 1.

Compound	% Red (average reduction in bacterial growth rates) ([1]; 0.25 mg/ml) [%]	% Red (average reduction in bacterial growth rates) ([1]; 0.5 mg/ml) [%]	% Red (average reduction in bacterial growth rates) ([1]; 2.5 mg/ml) [%]	% Red (average reduction in bacterial growth rates) ([1]; 5 mg/ml) [%]	% Red (average reduction in bacterial growth rates) ([1]; 50 mg/ml) [%]	salicylic acid release rate (in words) [3]	Salicylic Acid Release (Weight Percent of Maximum Release) ([3]; 0.05 hrs)	Salicylic Acid Release (Weight Percent of Maximum Release) ([3]; 1 hr)	Salicylic Acid Release (Weight Percent of Maximum Release) ([3]; 2 hrs)	Salicylic Acid Release (Weight Percent of Maximum Release) ([3]; 4 hrs)	Salicylic Acid Release (Weight Percent of Maximum Release) ([3]; 6 hrs)	Salicylic Acid Release (Weight Percent of Maximum Release) ([3]; 24 hrs)	% Red (average reduction in bacterial growth rates) ([5]; 0.25 mg/ml) [%]	% Red (average reduction in bacterial growth rates) ([5]; 0.5 mg/ml) [%]	% Red (average reduction in bacterial growth rates) ([5]; 2.5 mg/ml) [%]	% Red (average reduction in bacterial growth rates) ([5]; 5 mg/ml) [%]	% Red (average reduction in bacterial growth rates) ([5]; 50 mg/ml) [%]	antibacterial activity (in words) [6]	MIC [6] [µg/mL]	Average % of particles below 10 μm [7] [%]	further results
O=C(CCCCC(=O)Oc1ccccc1C(=O)O)Oc1ccccc1C(=O)O [Comparative Example 1, Bis(2-carboxyphenyl)adipate, reference compound]	0	5	6	100	100	more moderate	1.46 Weight Percent of Maximum Release	4.93 Weight Percent of Maximum Release	6.03 Weight Percent of Maximum Release	6.81 Weight Percent of Maximum Release	10.06 Weight Percent of Maximum Release	26.42 Weight Percent of Maximum Release	0	57	63	100	100	little or no	> 1670	32.1	MIC [2]: > 1670 µg/mL; hydrolysis completion ([4]; in four days): about 90%; Average % of particles below 100 μm [7]: 96.03%; Average % of particles below 200 μm [7]: 99.99%; Volume Mean Particle Diameter [7]: 28.85 μm
O=C(COCC(=O)Oc1ccccc1C(=O)O)Oc1ccccc1C(=O)O [Example 1, Bis(2-carboxyphenyl)diglycolate]	66	29	100	100	100	rapid initial	20.035 Weight Percent of Maximum Release	45.525 Weight Percent of Maximum Release	54.910 Weight Percent of Maximum Release	59.795 Weight Percent of Maximum Release	54.890 Weight Percent of Maximum Release	64.520 Weight Percent of Maximum Release	10	95	100	100	100	strongest	200 to 1000 (≈ 0.534 to 2.67 mM)	11.87	antibacterial activity (in words) ([1]; Biosys, summary of Table 5): strongest; MIC [2]: ~200 µg/mL (≈ 0.534 mM); time until hydrolysis is complete [4]: 2.5 h; antibacterial activity (in words) ([5]; Biosys, summary of Table 4): strongest; Average % of particles below 100 μm [7]: 91.69%; Average % of particles below 200 μm [7]: 99.58%; Volume Mean Particle Diameter [7]: 45.64 μm
O=C(COCCOCC(=O)Oc1ccccc1C(=O)O)Oc1ccccc1C(=O)O [Example 2, Bis(2-carboxyphenyl)-3,6-dioxaoctanedioate]	5	0	100	100	100	rapid initial	35.25 Weight Percent of Maximum Release	47.44 Weight Percent of Maximum Release	44.85 Weight Percent of Maximum Release	46.07 Weight Percent of Maximum Release	51.20 Weight Percent of Maximum Release	58.23 Weight Percent of Maximum Release	0	0	50	100	100	modest	~2500 (≈ 5.98 mM)	37.54	Particle size distribution, Comments [7]: Bimodal size; Average % of particles below 100 μm [7]: 80.89%; Average % of particles below 200 μm [7]: 99.39%; Volume Mean Particle Diameter [7]: 48.82 μm
